According to the Kinase Knowledgebase extract (Sharma et al. 2016):
pIC50: −log10 of the molar value.

target: MAPK14 (human) (UniProt Q16539); test: Assessment of MAPK14 Kinase Activity
Sequence (Q16539 whole entry, looked up): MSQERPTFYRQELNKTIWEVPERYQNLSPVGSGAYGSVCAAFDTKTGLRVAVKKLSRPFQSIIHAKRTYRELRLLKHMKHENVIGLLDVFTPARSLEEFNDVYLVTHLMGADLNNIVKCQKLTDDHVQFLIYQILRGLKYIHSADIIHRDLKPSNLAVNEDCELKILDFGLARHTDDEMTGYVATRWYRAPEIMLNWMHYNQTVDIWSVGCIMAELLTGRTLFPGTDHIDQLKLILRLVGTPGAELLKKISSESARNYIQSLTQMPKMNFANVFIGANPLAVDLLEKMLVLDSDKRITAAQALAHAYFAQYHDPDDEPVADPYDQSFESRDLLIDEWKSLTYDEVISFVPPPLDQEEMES

pIC50	Structure (SMILES)
7.46	C[C@@H](CO)Nc1nccc(-c2c(-c3ccc(F)cc3)nc3occn23)n1
7.43	C[C@@H](O)CNc1nccc(-c2c(-c3ccc(F)cc3)nc3occn23)n1
8.14	CC(C)(C)OC(=O)N1CCC[C@H]1CNc1nccc(-c2c(-c3ccc(F)cc3)nc3sccn23)n1
8.05	O[C@@H](CNc1nccc(-c2c(-c3ccc(F)cc3)nc3occn23)n1)c1ccccc1
7.06	OCCC(CO)Nc1nccc(-c2c(-c3ccc(F)cc3)nc3sccn23)n1 (configuration not stated)
< 5.00	COc1cccc(-c2nc3sccn3c2-c2nc(SC)ncc2-c2ccccc2)c1

The next lines start with the compound.

Structure (SMILES)	pIC50
Fc1ccc(-c2nc3sccn3c2-c2ccnc(N3CCCCC3)n2)cc1	6.28
Cc1ccc(-c2nc3sccn3c2-c2ccnc(S(C)(=O)=O)n2)cc1	5.00
CCCCCOc1nccc(-c2c(-c3ccc(F)cc3)nc3sccn23)n1	6.05
Fc1ccc(Cl)c(-c2nc3occn3c2-c2ccnc(N[C@@H]3CN4CCC3CC4)n2)c1	8.17
CS(=O)(=O)c1nccc(-c2c(-c3ccc(F)c(F)c3)nc3sccn23)n1	5.00
COc1cccc(-c2nc3sccn3c2-c2ccnc(S(C)(=O)=O)n2)c1	5.00
